Data on 16 compounds can be found in US20090137572A1, “2-substituted-4-heteroaryl-pyrimidines useful for the treatment of proliferative disorders” (priority 2004, published 2009).

Series [1] addresses T1, Flt3 (FMS-like tyrosine kinase-3) (Homo sapiens, UniProt P36888).
T1 sequence (P36888 27-993): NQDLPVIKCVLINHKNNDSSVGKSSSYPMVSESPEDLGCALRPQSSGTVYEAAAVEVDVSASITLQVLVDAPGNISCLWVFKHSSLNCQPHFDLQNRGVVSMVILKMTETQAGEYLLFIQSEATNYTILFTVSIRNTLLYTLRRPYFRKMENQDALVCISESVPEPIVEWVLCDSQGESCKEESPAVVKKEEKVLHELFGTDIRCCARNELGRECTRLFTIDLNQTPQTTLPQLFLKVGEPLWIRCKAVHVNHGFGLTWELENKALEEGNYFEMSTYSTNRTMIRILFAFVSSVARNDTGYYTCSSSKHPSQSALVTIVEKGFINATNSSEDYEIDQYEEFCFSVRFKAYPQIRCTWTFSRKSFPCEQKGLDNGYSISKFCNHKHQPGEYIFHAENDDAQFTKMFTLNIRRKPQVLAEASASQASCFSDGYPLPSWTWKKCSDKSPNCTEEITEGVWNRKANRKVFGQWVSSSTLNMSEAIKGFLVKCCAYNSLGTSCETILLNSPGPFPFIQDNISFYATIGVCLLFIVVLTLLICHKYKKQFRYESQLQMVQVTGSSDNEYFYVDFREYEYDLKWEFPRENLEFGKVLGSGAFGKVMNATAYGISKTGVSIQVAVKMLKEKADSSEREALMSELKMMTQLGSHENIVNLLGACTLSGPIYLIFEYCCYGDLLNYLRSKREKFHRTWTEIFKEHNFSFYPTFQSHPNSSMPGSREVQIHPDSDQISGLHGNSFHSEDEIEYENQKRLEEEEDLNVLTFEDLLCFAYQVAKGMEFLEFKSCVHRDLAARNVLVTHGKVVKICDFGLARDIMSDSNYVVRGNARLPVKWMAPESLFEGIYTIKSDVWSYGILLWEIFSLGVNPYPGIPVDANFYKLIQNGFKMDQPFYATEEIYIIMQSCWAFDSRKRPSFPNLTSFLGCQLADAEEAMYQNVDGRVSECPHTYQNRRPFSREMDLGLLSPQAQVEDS
Briefly: Kinase assay (radioactive phosphate incorporation), Flt3. The series is classed as biochemical. Conditions: pIC50 is -log(IC50, M), read-out: Kinase Inhibition pIC50 Flt3 (converted). How it is done:
(§1) Kinase assays. The compounds of the invention above were investigated for their ability to inhibit the enzymatic activity of various protein kinases (Table 2). This was achieved by measurement of incorporation of radioactive phosphate from ATP into appropriate polypeptide substrates. Recombinant protein kinases and kinase complexes were produced or obtained commercially. Assays were performed using 96-well plates and appropriate assay buffers (typically 25 mM β-glycerophosphate, 20 mM MOPS, 5 mM EGTA, 1 mM DTT, 1 mM […], pH 7.4), into which were added 2-4 μg of active enzyme with appropriate substrates. The reactions were initiated by addition of Mg/ATP mix (15 mM MgCl2+100 μM ATP with 30-50 kBq per well of [γ-^32P]-ATP) and mixtures incubated as required at 30° C. Reactions were stopped on ice, followed by filtration through p81 filterplates or GF/C filterplates (Whatman Polyfiltronics, Kent, UK). After washing 3 times with 75 mM aq orthophosphoric acid, plates were dried, scintillant added and incorporated radioactivity measured in a scintillation counter (TopCount, Packard Instruments, Pangbourne, Berks, UK). Compounds for kinase assay were made up as 10 mM stocks in DMSO and diluted into 10% DMSO in assay buffer.

Another series has as its target T2, Aurora A kinase (Homo sapiens, UniProt O14965).
T2 construct: purchased
T2 sequence (O14965 1-403): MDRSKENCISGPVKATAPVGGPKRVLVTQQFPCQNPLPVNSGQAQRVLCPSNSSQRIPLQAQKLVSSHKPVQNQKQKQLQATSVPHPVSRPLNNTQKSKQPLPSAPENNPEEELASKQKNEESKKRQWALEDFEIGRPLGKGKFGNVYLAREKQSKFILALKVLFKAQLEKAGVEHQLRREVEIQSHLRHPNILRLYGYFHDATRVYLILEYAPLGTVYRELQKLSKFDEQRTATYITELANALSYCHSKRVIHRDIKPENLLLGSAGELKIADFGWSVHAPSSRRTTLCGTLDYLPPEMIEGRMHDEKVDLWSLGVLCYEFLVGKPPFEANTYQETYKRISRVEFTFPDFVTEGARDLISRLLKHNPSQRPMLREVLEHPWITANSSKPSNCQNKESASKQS
Briefly: Aurora-A (human) kinase assay (Kemptide substrate). Type of series: biochemical. The note with it: pIC50 is -log(IC50, M); 15 μM ATP; read-out: Kinase Inhibition pIC50 Aurora A kinase (converted). The essentials: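 Radiometric filter-binding assay: commercial aurora-A kinase (5-10 ng) with 200 μM Kemptide in MOPS/EDTA pH 7.0, started with 10 mM Mg acetate and 15 μM ATP plus [γ-33P]-ATP. Incubated 40 min at room temperature, stopped with phosphoric acid, incorporated 33P counted by scintillation.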

The target in a further series is CDK2-cycline E (Homo sapiens, UniProt P24941). Briefly: Kinase assay (radioactive phosphate incorporation), CDK2-cyclin E. The series is classed as biochemical. Conditions: read-out: Kinase Inhibition pIC50 CDK2-cycline E (converted). How it is done: as §1
A further series deals with CDK9/cyclin T1 (Homo sapiens, UniProt P50750). Briefly: CDK 9 assay (CTD peptide substrate). Conditions: read-out: Kinase Inhibition pIC50 CDK9-cyclin T1 (converted). Type of series: biochemical. As for the experimental part:
as §1
(§2) CDK 7 and 9 assays. CTD peptide substrate (biotinyl-Abx-(Tyr-Ser-Pro-Thr-Ser-Pro-Ser)4-NH2; 1-2 mg/mL) and recombinant human CDK7/cyclin H, CDK9/cyclin T1, or CDK9/cyclin K (0.5-2 μg) were incubated for 45 min at 30° C. in the presence of varying amounts of test compound in 20 mM MOPS pH 7.2, 25 mM β-glycerophosphate, 5 mM EGTA, 1 mM DTT, 1 mM sodium vanadate, 15 mM MgCl2, and 100 μM ATP (containing a trace amount of ^32PγATP) in a total volume of 25 μL in a 96-well microtiter plate. The reaction was stopped by placing the plate on ice for 2 min. Avidin (50 μg) was added to each well, and the plate was incubated at room temp for 30 min. The samples were transferred to a 96-well P81 filter plate, and washed (4×200 μL per well) with 75 mM phosphoric acid. Microscint 40 scintillation liquid (50 μL) was added to each well, and the amount of ^32P incorporation for each sample was measured using a Packard Topcount microplate scintillation counter.

Another series has as its target CDK7/cyclin H (Homo sapiens, UniProt P50613). Briefly: CDK 7 assay (CTD peptide substrate). The note with it: read-out: Kinase Inhibition pIC50 CDK7-cyclin H (converted). Type of series: biochemical. How it is done: as §1, §2

Sequence of CDK9/cyclin T1 (P50750 whole entry): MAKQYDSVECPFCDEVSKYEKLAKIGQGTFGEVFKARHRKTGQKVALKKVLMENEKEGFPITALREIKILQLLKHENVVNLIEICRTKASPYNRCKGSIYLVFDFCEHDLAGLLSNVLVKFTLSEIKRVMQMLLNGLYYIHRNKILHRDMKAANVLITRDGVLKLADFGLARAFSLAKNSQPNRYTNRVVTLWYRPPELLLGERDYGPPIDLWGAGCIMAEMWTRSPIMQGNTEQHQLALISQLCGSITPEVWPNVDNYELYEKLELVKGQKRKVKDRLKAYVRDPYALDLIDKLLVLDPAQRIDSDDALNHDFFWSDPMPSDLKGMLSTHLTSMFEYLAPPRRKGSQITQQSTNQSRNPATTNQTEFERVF
Sequence of CDK9/cyclin T1 (O60563 whole entry partner): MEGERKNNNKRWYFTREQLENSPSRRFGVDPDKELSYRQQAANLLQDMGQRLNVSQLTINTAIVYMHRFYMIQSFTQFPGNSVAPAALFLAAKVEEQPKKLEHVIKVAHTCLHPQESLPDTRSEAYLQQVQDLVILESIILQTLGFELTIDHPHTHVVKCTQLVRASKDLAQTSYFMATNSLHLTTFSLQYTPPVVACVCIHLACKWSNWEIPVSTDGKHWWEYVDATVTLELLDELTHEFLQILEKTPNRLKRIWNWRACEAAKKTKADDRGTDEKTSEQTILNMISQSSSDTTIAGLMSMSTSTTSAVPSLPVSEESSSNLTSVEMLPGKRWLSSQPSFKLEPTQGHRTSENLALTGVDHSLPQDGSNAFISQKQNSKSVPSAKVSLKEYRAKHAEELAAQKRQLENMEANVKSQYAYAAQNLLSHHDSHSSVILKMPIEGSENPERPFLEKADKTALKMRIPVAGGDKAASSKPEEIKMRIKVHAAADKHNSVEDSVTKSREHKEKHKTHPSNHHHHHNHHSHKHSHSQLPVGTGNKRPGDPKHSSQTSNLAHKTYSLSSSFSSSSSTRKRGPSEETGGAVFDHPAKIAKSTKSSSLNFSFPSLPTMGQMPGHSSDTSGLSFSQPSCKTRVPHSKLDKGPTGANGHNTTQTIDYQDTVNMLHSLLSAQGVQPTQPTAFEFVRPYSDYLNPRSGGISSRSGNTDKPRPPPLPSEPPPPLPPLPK
Sequence of CDK7/cyclin H (P50613 whole entry): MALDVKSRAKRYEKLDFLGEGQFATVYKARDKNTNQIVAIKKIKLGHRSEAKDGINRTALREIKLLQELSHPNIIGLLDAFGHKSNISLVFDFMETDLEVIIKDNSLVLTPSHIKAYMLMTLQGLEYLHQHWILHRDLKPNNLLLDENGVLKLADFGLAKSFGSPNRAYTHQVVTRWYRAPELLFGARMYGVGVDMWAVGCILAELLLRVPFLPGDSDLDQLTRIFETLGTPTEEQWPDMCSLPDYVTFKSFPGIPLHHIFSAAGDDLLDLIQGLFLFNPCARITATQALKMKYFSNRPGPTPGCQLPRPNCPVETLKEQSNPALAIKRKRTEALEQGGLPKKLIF
Sequence of CDK7/cyclin H (P51946 whole entry partner): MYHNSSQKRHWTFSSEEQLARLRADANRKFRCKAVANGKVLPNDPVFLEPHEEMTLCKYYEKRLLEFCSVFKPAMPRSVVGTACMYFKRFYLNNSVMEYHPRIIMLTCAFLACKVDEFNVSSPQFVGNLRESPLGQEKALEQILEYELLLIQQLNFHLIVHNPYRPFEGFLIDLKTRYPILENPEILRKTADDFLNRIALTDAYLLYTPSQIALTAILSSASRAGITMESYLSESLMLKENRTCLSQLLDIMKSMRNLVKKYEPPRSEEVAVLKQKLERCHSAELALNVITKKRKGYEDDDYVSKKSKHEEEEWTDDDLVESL

Usually melting point stands for the temperature of the solid-liquid transition. The compound `Cc1nc(NCCc2ccccc2)sc1-c1ccnc(Nc2ccc(N3CCN(Cc4ccccc4)CC3)cc2)n1` [Compound 166, [4-(4-Benzyl-piperazin-1-yl)-phenyl]-[4-(4-methyl-2-phenethylamino-thiazol-5-yl)-pyrimidin-2-yl]-amine] returned a melting point of 191 to 192 °C.
With `COc1cc(Nc2nccc(-c3sc(-c4cccnc4)nc3C)n2)ccc1N1CCOCC1` [Compound 156, (3-Methoxy-4-morpholin-4-yl-phenyl)-[4-(4-methyl-2-pyridin-3-yl-thiazol-5-yl)-pyrimidin-2-yl]-amine], the IC50 (in series [1]; on Aurora A kinase) was 100 nM in each case.
In the case of `Cc1nc(C)c(-c2ccnc(Nc3cccc(N4CCOCC4)c3)n2)s1` [Compound 152, [4-(2,4-Dimethyl-thiazol-5-yl)-pyrimidin-2-yl]-(3-morpholin-4-yl-phenyl)-amine], the IC50 on CDK2-cycline E was 316 nM; in series [1] it was 31.6 nM; on Aurora A kinase, 50.1 nM.
As for `Cc1nc(N(C)c2cccnc2)sc1-c1ccnc(Nc2ccc(N3CCOCC3)cc2)n1` [Compound 162, {4-[4-Methyl-2-(methyl-pyridin-3-yl-amino)-thiazol-5-yl]-pyrimidin-2-yl}-(4-morpholin-4-yl-phenyl)-amine], the IC50 at CDK2-cycline E was 3160 nM; on CDK9/cyclin T1, 3160 nM; in series [1] it was 63.1 nM; at Aurora A kinase, 126 nM.
With `Cc1nc(C)c(-c2ccnc(Nc3cccc(CN4CCOCC4)c3)n2)s1` [Compound 150, [4-(2,4-Dimethyl-thiazol-5-yl)-pyrimidin-2-yl]-(3-morpholin-4-ylmethyl-phenyl)-amine], the IC50 on CDK2-cycline E was 1260 nM; in series [1], 126 nM; at Aurora A kinase, 158 nM.
As for `COc1cc(Nc2nccc(-c3sc(C)nc3C)n2)cc(OC)c1` [Compound 175, (3,5-Dimethoxy-phenyl)-[4-(2,4-dimethyl-thiazol-5-yl)-pyrimidin-2-yl]-amine], the IC50 at CDK2-cycline E is 1260 nM; on CDK7/cyclin H, 5010 nM; at CDK9/cyclin T1, 1580 nM; in series [1] it was 39.8 nM; at Aurora A kinase it was 79.4 nM.
With `Cc1nc(C)c(-c2ccnc(Nc3ccc(CN4CCOCC4)cc3)n2)s1` [Compound 174, [4-(2,4-Dimethyl-thiazol-5-yl)-pyrimidin-2-yl]-(4-morpholin-4-ylmethyl-phenyl)-amine], the IC50 at CDK2-cycline E is 1260 nM; at CDK7/cyclin H, 251 nM; on CDK9/cyclin T1, 1000 nM; in series [1], 158 nM; on Aurora A kinase it was 100 nM.
Regarding `Cc1nc(C)c(-c2ccnc(Nc3ccc(N4CC(C)OC(C)C4)cc3)n2)s1` (stereo not shown) [Compound 121, [4-(2,6-Dimethyl-morpholin-4-yl)-phenyl]-[4-(2,4-dimethyl-thiazol-5-yl)-pyrimidin-2-yl]-amine], the IC50 on CDK2-cycline E was 5010 nM; on CDK9/cyclin T1 it was 3980 nM; in series [1], 398 nM; at Aurora A kinase it was 39.8 nM.
As for `Cc1nc(C)c(-c2ccnc(Nc3cc(CO)cc(CO)c3)n2)s1` [Compound 47, {3-[4-(2,4-Dimethyl-thiazol-5-yl)-pyrimidin-2-ylamino]-5-hydroxymethyl-phenyl}-methanol], the IC50 in series [1] was 200 nM.
As for `COCCOC(=O)Cc1cccc(Nc2nccc(-c3sc(N)nc3C)n2)c1` [Compound 1, {3-[4-(2-Amino-4-methyl-thiazol-5-yl)-pyrimidin-2-ylamino]-phenyl}-acetic acid 2-methoxy-ethyl ester], the IC50 is 1000 nM at CDK2-cycline E, 3160 nM at CDK7/cyclin H and 126 nM in series [1].
As to `COc1cc(Nc2nccc(-c3sc(-c4cccnc4)nc3C)n2)cc(OC)c1OC` [Compound 154, [4-(4-Methyl-2-pyridin-3-yl-thiazol-5-yl)-pyrimidin-2-yl]-(3,4,5-trimethoxy-phenyl)-amine], the IC50 in series [1] is 100 nM; on Aurora A kinase, 79.4 nM.
With `COc1cc(Nc2nccc(-c3sc(N)nc3C)n2)cc(OC)c1OC` [Compound 168, [4-(2-Amino-4-methyl-thiazol-5-yl)-pyrimidin-2-yl]-(3,4,5-trimethoxy-phenyl)-amine], the IC50 is 398 nM on CDK2-cycline E; 1260 nM on CDK7/cyclin H; 316 nM at CDK9/cyclin T1; 5.01 nM in series [1]; 31.6 nM on Aurora A kinase.
Consider `Cc1nc(C)c(-c2ccnc(Nc3ccc(O)c(CN4CCOCC4)c3)n2)s1` [Compound 151, 4-[4-(2,4-Dimethyl-thiazol-5-yl)-pyrimidin-2-ylamino]-2-morpholin-4-ylmethyl-phenol], for which the IC50 at CDK2-cycline E was 200 nM; in series [1] it was 63.1 nM; on Aurora A kinase it was 63.1 nM.
With `CNc1nc(C)c(-c2ccnc(Nc3cc(OC)cc(OC)c3)n2)s1` [Compound 170, (3,5-Dimethoxy-phenyl)-[4-(4-methyl-2-methylamino-thiazol-5-yl)-pyrimidin-2-yl]-amine], the IC50 on CDK2-cycline E was 316 nM; in series [1] it was 10 nM; at Aurora A kinase it was 63.1 nM.
On to `COc1cc(Nc2nccc(-c3sc(C)nc3C)n2)cc(OC)c1OC` [Compound 25, [4-(2,4-Dimethyl-thiazol-5-yl)-pyrimidin-2-yl]-(3,4,5-trimethoxy-phenyl)-amine], for which the IC50 at CDK7/cyclin H was 3160 nM; at CDK9/cyclin T1, 2000 nM; in series [1], 63.1 nM; on Aurora A kinase, 20 nM.
With `CCNc1nc(C)c(-c2ccnc(Nc3ccc(N4CC(C)OC(C)C4)cc3)n2)s1` (stereo not shown) [Compound 169, [4-(2,6-Dimethyl-morpholin-4-yl)-phenyl]-[4-(2-ethylamino-4-methyl-thiazol-5-yl)-pyrimidin-2-yl]-amine], the IC50 at CDK2-cycline E was 1580 nM; at CDK9/cyclin T1, 3160 nM; in series [1] it was 39.8 nM; at Aurora A kinase it was 50.1 nM.
